Format in all cases: cell-based
Assay [1] deals with HCV 1a RLuc cells (dicistronic genotype 1a H77 replicon, RLuc reporter). The assay can be described thus: microbe, parasite or virus in culture. Conditions: Hepatitis C virus, read-out: 1a. In outline:
(§1)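 Replicons used: genotype 1b Con1, 1a H77, 2a JFH-1, and a 2a JFH-1 chimera with J6-strain NS5A (M31 present), all dicistronic.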

Assay [2] deals with HCV 1b RLuc cells (dicistronic genotype 1b Con1 replicon, RLuc reporter). The experiment in a line: microbe, parasite or virus in culture. Conditions: Hepatitis C virus, read-out: 1b (nM). In outline:
as §1

Assay [3] deals with HCV 2a JFH-1 Rluc cells (dicistronic genotype 2a JFH-1 replicon, RLuc reporter). The experiment in a line: microbe, parasite or virus in culture. To be noted: Hepatitis C virus, read-out: 2a JFH. In outline: as §1
The test system of assay [4] is HCV 2b Rluc cells (NS5A chimeric genotype 2a JFH-1 replicon with genotype 2b MD2b-1 NS5A gene, M31 present). The assay can be described thus: microbe, parasite or virus in culture. To be noted: Hepatitis C virus, read-out: 2b. The method, boiled down:
(§2)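 Replicon cells stably carrying the listed RLuc-encoding dicistronic replicons were seeded and treated with DMSO serial dilutions of compound (10 mM stocks) diluted into culture medium. After 72 h, cells were lysed and Renilla luciferase activity measured. EC50 was derived by non-linear regression.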

Assay [5] relates to HCV 3a RLuc cells (NS5A chimeric genotype 1b Con1 replicon with consensus genotype 3a NS5A gene). The assay can be described thus: microbe, parasite or virus in culture. Conditions: Hepatitis C virus. In outline:
as §2

Assay [6] has as its system HCV 4a Rluc cells (NS5A chimeric genotype 1b Con1 replicon with genotype 4a NS5A gene). The experiment in a line: microbe, parasite or virus in culture. To be noted: Hepatitis C virus, read-out: 4a. The method, boiled down: as §2
Assay [7] relates to HCV 2a Rluc cells (NS5A chimeric genotype 2a JFH-1 replicon with genotype 2a J6 strain NS5A gene, M31 present). The experiment in a line: HCV replicon reporter assay, genotype 2a J6 (M31 present). To be noted: Hepatitis C virus, read-out: 2a J6. The method, boiled down: as §1
For orientation: Replicon systems follow genome replication, usually without infectious particles.

Where [8] appears, read: read-out: 3a, genotype 3a replicon.
The mark [9] stands for this setting: genotype 2a JFH-1 RLuc replicon.
[10] abbreviates: read-out: 3a, genotype 3a NS5A chimeric replicon.

Where two headings read alike, the source gives them in different places.

As for `COC[C@H]1C[C@@H](c2nc3ccc4cc(-c5ccc6c(ccc7nc([C@@H]8C[C@H]9C[C@H]9N8C(=O)[C@@H](NC(=O)OC)C(C)C)[nH]c76)c5)ccc4c3[nH]2)N(C(=O)[C@@H](NC(=O)OC)C(C)C)C1` [Example 471], the EC50 in assay [1] (genotype 1a replicon) was 0.001 to 0.999 nM; in assay [2] it was 0.015 nM; in assay [3] (genotype 2a JFH-1 replicon), 0.001 to 0.999 nM; in assay [4] it was 1 to 44 nM; in assay [5] (setting [8]), 0.001 to 0.99 nM; in assay [6] it was 0.001 to 0.99 nM. In assay [7], the EC50 fell in the range of 0.001 to 0.999 nM.
Consider `COC(=O)N[C@@H](C(=O)N1C[C@@H](C)C[C@H]1c1ncc(-c2cc3c4c(c2)OCc2cc(-c5cnc([C@@H]6C[C@H](C)CN6C(=O)[C@H](NC(=O)OC)c6ccccc6)[nH]5)cc(c2-4)OC3)[nH]1)c1ccccc1` [Example 505], for which the EC50 was 0.001 to 0.999 nM in assay [1] (genotype 1a H77 RLuc replicon); 0.019 nM in assay [2]; 0.001 to 0.999 nM in assay [3] (setting [9]); 0.001 to 0.999 nM in assay [4]; 0.001 to 0.99 nM in assay [5] (setting [10]); 0.001 to 0.99 nM in assay [6]. For the same compound, the EC50 in assay [7] is 0.001 to 0.999 nM.
For `COC(=O)N[C@H](C(=O)N1[C@@H]2CC[C@@H](C2)[C@H]1c1nc2ccc3cc(-c4ccc5c(ccc6nc([C@@H]7CCCN7C(=O)[C@H](NC(=O)C(C)(C)O)c7ccccc7)[nH]c65)c4)ccc3c2[nH]1)C(C)C` [Example 357], the EC50 in assay [1] (genotype 1a replicon) is 0.001 to 0.999 nM; in assay [2], 0.044 nM; in assay [3] (genotype 2a JFH-1 replicon), 0.001 to 0.999 nM; in assay [4], 0.001 to 0.999 nM; in assay [5] (setting [8]) it was 0.001 to 0.99 nM; in assay [6], 0.001 to 0.99 nM. For the same compound, the EC50 in assay [7] fell in the range of 0.001 to 0.999 nM.
For the compound `COC[C@H]1C[C@@H](c2ncc(-c3ccc(-c4ccc(-c5cnc([C@@H]6CC[C@H](C)N6C(=O)[C@@H](NC(=O)OC)C(C)C)[nH]5)cc4)cc3)[nH]2)N(C(=O)[C@H](NC(=O)C2CC2)c2ccccc2)C1` [Example 591], the EC50 is 0.001 to 0.999 nM in assay [1] (genotype 1a H77 RLuc replicon); 0.016 nM in assay [2]; 0.001 to 0.999 nM in assay [3] (setting [9]); 0.001 to 0.999 nM in assay [4]; 0.001 to 0.99 nM in assay [5] (setting [10]); 0.001 to 0.99 nM in assay [6]. Also, the EC50 in assay [7] was in the range of 0.001 to 0.999 nM.
For `O=C(N[C@@H](C(=O)N1CCC[C@H]1c1ncc(-c2cc3c4c(c2)OCc2cc(-c5cnc([C@@H]6CCCN6C(=O)[C@H](NC(=O)C6CCCC6)c6ccccc6)[nH]5)cc(c2-4)OC3)[nH]1)c1ccccc1)C1CCCC1` [Example 489], the EC50 was 0.001 to 0.999 nM in assay [1] (genotype 1a H77 RLuc replicon); 0.048 nM in assay [2]; 0.001 to 0.999 nM in assay [3] (setting [9]); 0.001 to 0.999 nM in assay [4]; 0.001 to 0.99 nM in assay [5] (setting [10]); 0.001 to 0.99 nM in assay [6]. Moreover, the EC50 in assay [7] is 0.001 to 0.999 nM.
For `O=C(N[C@@H](C(=O)N1CCC[C@H]1c1ncc(-c2cc3c4c(c2)OCc2cc(-c5cnc([C@@H]6CCCN6C(=O)[C@H](NC(=O)C6CCOCC6)c6ccccc6)[nH]5)cc(c2-4)OC3)[nH]1)c1ccccc1)C1CCOCC1` [Example 490], the EC50 in assay [1] (genotype 1a H77 RLuc replicon) was 1 to 44 nM; in assay [2], 0.989 nM; in assay [3] (setting [9]), 0.001 to 0.999 nM; in assay [4], 0.001 to 0.999 nM; in assay [5] (setting [10]) it was 0.001 to 0.99 nM; in assay [6], 0.001 to 0.99 nM. The EC50 in assay [7] was in the range of 0.001 to 0.999 nM.
In the case of `COC(=O)N[C@H](C(=O)N1CCC[C@H]1c1nc(Cl)c(-c2ccc(-c3ccc4c(ccc5nc([C@@H]6[C@H]7CC[C@H](C7)N6C(=O)[C@@H](NC(=O)OC)C(C)C)[nH]c54)c3)cc2)[nH]1)C(C)C` [Example 386], the EC50 in assay [1] (genotype 1a replicon) is 0.001 to 0.999 nM; in assay [2], 0.015 nM; in assay [3] (genotype 2a JFH-1 replicon), 0.001 to 0.999 nM; in assay [4] it was over 44 nM; in assay [5] (setting [8]), 0.001 to 0.99 nM; in assay [6], 0.001 to 0.99 nM. The EC50 in assay [7] is over 44 nM.
Regarding `COC[C@H]1C[C@@H](c2ncc(-c3ccc(-c4ccc5c(ccc6nc([C@@H]7CCCN7C(=O)[C@H](NC(=O)OC)c7ccccc7)[nH]c65)c4)cc3)[nH]2)N(C(=O)[C@@H](NC(=O)OC)C(C)C)C1` [Example 442], the EC50 in assay [1] (genotype 1a replicon) is 0.001 to 0.999 nM; in assay [2], 0.029 nM; in assay [3] (genotype 2a JFH-1 replicon) it was 0.001 to 0.999 nM; in assay [4], 0.001 to 0.999 nM; in assay [5] (setting [8]), 0.001 to 0.99 nM; in assay [6], 0.001 to 0.99 nM. Also, the EC50 in assay [7] was in the range of 0.001 to 0.999 nM.
